Results published in patent US12384776B2, “Compounds and uses thereof” (Foghorn Therapeutics Inc., priority 2019, dated 2025).

target: Nanoluciferase-BRD9 fusion protein (3×FLAG-NLuc-BRD9) in SYO-1 cells (Homo sapiens (Human), UniProt Q9H8M2); experiment: SYO1 BRD9 NanoLuc degradation assay; assay type: cell-based; settings: SYO-1 cells expressing 3×FLAG-NLuc-BRD9, 6 hours incubation, top dose 1 μM
Experimental: Procedure: A stable SYO-1 cell line expressing 3×FLAG-NLuc-BRD9 was generated. On day 0 cells were seeded in 30 μL media into each well of 384-well cell culture plates. The seeding density was 8000 cells/well. On day 1, cells were treated with 30 nL DMSO or 30 nL of 3-fold serially DMSO-diluted compounds (10 points in duplicates with 1 μM as final top dose). Subsequently plates were incubated for 6 hours in a standard tissue culture incubator and equilibrated at room temperature for 15 minutes. Nanoluciferase activity was measured by adding 15 μL of freshly prepared Nano-Glo Luciferase Assay Reagent (Promega N1130), shaking the plates for 10 minutes and reading the bioluminescence using an EnVision reader.
Results: The Inhibition % was calculated using the following formula: % Inhibition=100×(LumHC−LumSample)/(LumHC−LumLC). DMSO treated cells are employed as High Control (HC) and 1 μM of a known BRD9 degrader standard treated cells are employed as Low Control (LC).

Sequence of Nanoluciferase-BRD9 fusion protein (3×FLAG-NLuc-BRD9) in SYO-1 cells (Q9H8M2 whole entry, the tested form may be a part): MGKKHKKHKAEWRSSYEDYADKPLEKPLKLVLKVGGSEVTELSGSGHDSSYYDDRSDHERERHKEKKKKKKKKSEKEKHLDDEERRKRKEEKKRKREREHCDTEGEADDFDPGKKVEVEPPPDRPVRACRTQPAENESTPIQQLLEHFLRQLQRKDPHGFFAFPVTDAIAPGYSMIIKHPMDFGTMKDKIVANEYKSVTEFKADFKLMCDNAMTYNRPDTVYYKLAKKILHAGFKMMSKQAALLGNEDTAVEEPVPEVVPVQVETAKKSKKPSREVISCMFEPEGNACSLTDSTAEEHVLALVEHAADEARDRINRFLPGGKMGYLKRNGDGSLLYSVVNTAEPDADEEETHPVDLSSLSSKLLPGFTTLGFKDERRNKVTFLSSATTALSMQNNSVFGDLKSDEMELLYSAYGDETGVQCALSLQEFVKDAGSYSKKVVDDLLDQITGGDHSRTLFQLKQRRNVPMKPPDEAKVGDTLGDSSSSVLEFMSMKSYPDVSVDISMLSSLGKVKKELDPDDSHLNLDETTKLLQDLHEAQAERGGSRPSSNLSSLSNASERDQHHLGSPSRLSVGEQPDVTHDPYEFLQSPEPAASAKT

Row | Compound | IC50
1 | CNC(=O)N1CCc2c(-c3cc(OC)c(CN4CC(CCCN5CCN(c6ccc7c(c6)C(=O)N(C6CCC(=O)NC6=O)C7=O)CC5)C4)c(OC)c3)cn(C)c(=O)c2C1 (centres unmarked) [Compound D257] | ≥ 1000 nM
2 | COc1cc(-c2cn(C)c(=O)c3c2CCN(C(=O)NCC2CC4(CCN(CCCOc5ccc6c(c5)C(=O)N(C5CCC(=O)NC5=O)C6=O)CC4)C2)C3)cc(OC)c1CN(C)C (centres unmarked) [Compound D235] | 100 to 1000 nM
3 | COc1cc(-c2cn(C)c(=O)c3c2CCN(C(=O)NCC2CC4CN(CCCOc5ccc6c(c5)C(=O)N(C5CCC(=O)NC5=O)C6=O)CC4C2)C3)cc(OC)c1CN(C)C (centres unmarked) [Compound D265] | 100 to 1000 nM
4 | CNC(=O)N1CCc2c(-c3cc(OC)c(CNc4ccc5c(c4)C(=O)N(C4CCC(=O)NC4=O)C5=O)c(OC)c3)cn(C)c(=O)c2C1 (centres unmarked) [Compound D111] | 10 to 100 nM
5 | COc1cc(-c2cn(C)c(=O)c3c2CCN(C(=O)NCCN2CCC4(CC2)CCN(c2ccc5c(c2)C(=O)N(C2CCC(=O)NC2=O)C5=O)C4)C3)cc(OC)c1CN(C)C (centres unmarked) [Compound D209] | 10 to 100 nM
6 | [2H]C([2H])([2H])n1cc(-c2cc(OC)c(CN3CCC(CN4CCC5(CC4)CC(Oc4ccc6c(c4)C(=O)N(C4CCC(=O)NC4=O)C6=O)C5)CC3)c(OC)c2)c2c(c1=O)CN(C(=O)NC)CC2 (centres unmarked) [Compound D44] | < 10 nM
7 | COc1cc(-c2cn(C)c(=O)c3c2CCN(C(=O)NCCCN2CCC4(CCN4c4ccc5c(c4)C(=O)N(C4CCC(=O)NC4=O)C5=O)C2)C3)cc(OC)c1CN(C)C (centres unmarked) [Compound D261] | 10 to 100 nM
8 | CNC(=O)N1CCc2c(-c3cc(OC)c(CN4CCC5(CCC(N6Cc7cc8c(cc7C6)C(=O)N(C6CCC(=O)NC6=O)C8=O)CC5)CC4)c(OC)c3)cn(C)c(=O)c2C1 (centres unmarked) [Compound D181] | < 10 nM
9 | CNC(=O)N1CCc2c(-c3cc(OC)c(CN4CCC(CN(C)C5CC(Oc6ccc7c(c6)C(=O)N(C6CCC(=O)NC6=O)C7=O)C5)CC4)c(OC)c3)cn(C)c(=O)c2C1 (centres unmarked) [Compound D149] | < 10 nM
10 | CNC(=O)N1CCc2c(-c3cc(OC)c(CN4CCC(CCN5CCN(c6ccc7c(c6)C(=O)N(C6CCC(=O)NC6=O)C7)CC5)CC4)c(OC)c3)cn(C)c(=O)c2C1 (centres unmarked) [Compound D69] | < 10 nM
11 | COc1cc(-c2cn(C)c(=O)c3c2CCN(C(=O)NCC2CC4CN(c5ccc6c(c5)C(=O)N([C@@H]5CCC(=O)NC5=O)C6=O)CC4C2)C3)cc(OC)c1CN(C)C (some centres unmarked) [Compound D123] | < 10 nM
12 | [2H]C1([2H])CC([2H])(N2C(=O)c3ccc(N4CCN(CCC5CCN(Cc6c(OC)cc(-c7cn(C)c(=O)c8c7CCN(C(=O)NC)C8)cc6OC)CC5)CC4)cc3C2=O)C(=O)NC1=O (centres unmarked) [Compound D80] | < 10 nM
13 | CNC(=O)N1CCc2c(-c3cc(OC)c(CN4CC(C(C)N5CCC6(CC5)CN(c5ccc7c(c5)C(=O)N(C5CCC(=O)NC5=O)C7=O)C6)C4)c(OC)c3)cn(C)c(=O)c2C1 (centres unmarked) [Compound D107] | < 10 nM
14 | CNC(=O)N1CCc2c(-c3cc(OC)c(CN4CCC5(CC4)CN(CCCCOc4ccc6c(c4)C(=O)N(C4CCC(=O)NC4=O)C6=O)CCO5)c(OC)c3)cn(C)c(=O)c2C1 (centres unmarked) [Compound D222] | < 10 nM
15 | COc1cc(-c2cn(C)c(=O)c3c2CCN(C(=O)NC2CC4(C2)CN(CCCCN2CCN(c5ccc6c(c5)C(=O)N(C5CCC(=O)NC5=O)C6=O)CC2)C4)C3)cc(OC)c1CN(C)C (centres unmarked) [Compound D230] | ≥ 1000 nM
16 | CNC(=O)N1CCc2c(-c3cc(OC)c(CN4CCC(CCN5CC6CC5CN6c5ccc6c(c5)C(=O)N(C5CCC(=O)NC5=O)C6=O)CC4)c(OC)c3)cn(C)c(=O)c2C1 (centres unmarked) [Compound D172] | < 10 nM
17 | COC(=O)N1CCc2c(-c3cc(OC)c(CN4CCC(CCN5CCN(c6ccc7c(c6)C(=O)N(C6CCC(=O)NC6=O)C7=O)CC5)CC4)c(OC)c3)cn(C)c(=O)c2C1 (centres unmarked) [Compound D64] | < 10 nM
18 | CNC(=O)N1CCc2c(c(-c3cc(OC)c(CN(C)CC45CC(C(=O)NCCCCCOc6cccc7c6C(=O)N(C6CCC(=O)NC6=O)C7=O)(C4)C5)c(OC)c3)cn(C)c2=O)C1 (centres unmarked) [Compound D294] | ≥ 1000 nM
19 | COc1cc(-c2cn(C)c(=O)c3c2CCN(C(=O)NCCN2CC4(CCN(c5ccc6c(c5)C(=O)N(C5CCC(=O)NC5=O)C6=O)C4)C2)C3)cc(OC)c1CN(C)C (centres unmarked) [Compound D211] | 100 to 1000 nM
20 | CNC(=O)N1CCc2c(-c3cc(OC)c(CN4CCC(CCN5CCN(c6ccc7c(c6OC)CN(C6CCC(=O)NC6=O)C7=O)CC5)CC4)c(OC)c3)cn(C)c(=O)c2C1 (centres unmarked) [Compound D49] | < 10 nM
21 | CNC(=O)N1CCc2c(-c3cc(OC)c(CN4CCC(CCN5CCN(c6cc(F)c7c(c6)C(=O)N(C6CCC(=O)NC6=O)C7=O)CC5)CC4)c(OC)c3)cn(C)c(=O)c2C1 (centres unmarked) [Compound D86] | < 10 nM
22 | CNC(=O)N1CCc2c(-c3cc(OC)c(CN4CCN(C5CNC5)CC4)c(OC)c3)cn(C)c(=O)c2C1 [Compound B23] | ≥ 1000 nM
23 | CNC(=O)N1CCc2c(-c3cc(OC)c(CNC4CC45CCN(c4ccc6c(c4)C(=O)N(C4CCC(=O)NC4=O)C6=O)C5)c(OC)c3)cn(C)c(=O)c2C1 (centres unmarked) [Compound D156] | < 10 nM
24 | CNC(=O)N1CCc2c(-c3cc(OC)c(CN4CCN(CC5CCN(c6ccc7c(c6)C(=O)N(C6CCC(=O)NC6=O)C7)CC5)CC4)c(OC)c3)cn(C)c(=O)c2C1 (centres unmarked) [Compound D40] | < 10 nM

same assay, conditions: SYO-1 cells, 6 hours, Table 6A

Row | Compound | IC50
25 | CNC(=O)N1CCc2c(-c3cc(OC)c(CN4CCN(C(=O)COc5cccc6c5C(=O)N(C5CCC(=O)NC5=O)C6=O)CC4)c(OC)c3)cn(C)c(=O)c2C1 (centres unmarked) [Compound D2, 5-(4-[[4-(2-[[2-(2,6-dioxopiperidin-3-yl)-1,3-dioxoisoindol-4-yl]oxy]acetyl)piperazin-1-yl]methyl]-3,5-dimethoxyphenyl)-N,7-dimethyl-8-oxo-3,4-dihydro-1H-2,7-naphthyridine-2-carboxamide] | > 10 nM

same assay, conditions: SYO-1 cells, 6 hours, Table 6A; read-out: SYO1 BRD9-NanoLuc degradation IC50

Row | Compound | DC50
26 | COc1cc(-c2cn(C)c(=O)c3c2CCN(C(=O)NCCS(=O)(=O)CCNc2cccc4c2C(=O)N(C2CCC(=O)NC2=O)C4=O)C3)cc(OC)c1CN(C)C (centres unmarked) [Compound D7, 5-[4-[(dimethylamino)methyl]-3,5-dimethoxyphenyl]-N-[2-(2-[[2-(2,6-dioxopiperidin-3-yl)-1,3-dioxoisoindol-4-yl]amino]ethanesulfonyl)ethyl]-7-methyl-8-oxo-3,4-dihydro-1H-2,7-naphthyridine-2-carboxamide formic acid] | > 10 nM

same assay, conditions: SYO-1 cells, 6 hours, Table 6C

Row | Compound | IC50
27 | COc1cc(-c2cn(C)c(=O)c3c2CCC3)cc(OC)c1CN1CCC(CN2CCC3(CC2)CN(c2ccc4c(c2)C(=O)N(C2CCC(=O)NC2=O)C4)C3)CC1 (centres unmarked) [Compound D353] | < 10 nM
28 | COc1cc(-c2cn(C)c(=O)c3c2CCN(C(=O)NCC(F)F)C3)cc(OC)c1CN1CCN(CCC2CCN(c3ccc4c(c3)C(=O)N(C3CCC(=O)NC3=O)C4)CC2)CC12CCC2 (centres unmarked) [Compound D333] | < 10 nM
29 | COc1cc(-c2cn(C)c(=O)c3c2CCC3)cc(OC)c1CN1CCC(C#Cc2ccc3c(c2)C(=O)N(C2CCC(=O)NC2=O)C3)CC1 (centres unmarked) [Compound D371] | < 10 nM
30 | COc1cc(-c2cn(C)c(=O)c3c2COC3)cc(OC)c1CN1CCC(CN2CCC3(CC2)CN(c2ccc4c(c2)C(=O)N(C2CCC(=O)NC2=O)C4)C3)CC1 (centres unmarked) [Compound D372] | < 10 nM
31 | [2H]C([2H])([2H])NC(=O)N1CCc2c(-c3cc(OC)c(CN4[C@H](C)CN(CCC5CCN(c6ccc7c(c6)C(=O)N(C6CCC(=O)NC6=O)C7)CC5)C[C@H]4C)c(OC)c3)cn(C)c(=O)c2C1 (some centres unmarked) [Compound D323] | < 10 nM
32 | CNC(=O)N1CCc2c(-c3cc(OC)c(CN4CCC(CN5CCC6(CN(c7ccc8c(c7)C(=O)N(C7CCC(=O)NC7=O)C8)C6)C(F)(F)C5)CC4)c(OC)c3)cn(C)c(=O)c2C1 (centres unmarked) [Compound D315] | < 10 nM
